Read-outs that look alike come from different tables or passages of the source. One block for each compound: values may come before it.
Experiments:
[1] = design: method as in PMID 24838869; conditions: dissociation of [Sc(DOTA)]; cited from earlier work
[2] = cited from earlier work
[3] = Fluoride exchange kinetics, 19F NMR selective magnetization transfer; assay type: physicochemical; conditions: complex 5 mM, cF = 10 mM, 14% uncertainty; for k obs ^AB (fluoride exchange, complex site A to free F^− site B): 298 K
Excerpt: Considering ^18F‐labeling and PET application of the [Sc(L)(F)]‐type mixed complexes, one has to check the inertness of the mixed complex against F‐exchange:
(7) [Sc(PC2AM^nBu)F]+∗F^−⇌[Sc(PC2AM^nBu)∗F]+F^− where * is used to indicate typographically the exchanging anion.
The ^19F NMR signal of the mixed complex is somewhat broadened (ν ½ = 150 Hz) due to the relaxation effect of the quadrupole ^45Sc (I = 7/2) nuclei, while the free fluoride is narrow (ν ½ = 4.5 Hz), indicating the absence of chemical exchange on the T 2‐time scale (Figure S24). […] (site A) and free F^− (site B) with k obs ^AB value of 0.6 s^−1 (14% uncertainty), indicating remarkable inertness of the monodentate fluoride (Figure S25). Very recently, 3–4 orders of magnitude larger fluoride exchange rate constants have been published for two Y(III) complexes formed with open‐chain ligands, [Y(EGTA)(F)]^2− and [Y(OBETA)(H2O)(F)]^2−.^[ [56] ^] […] At the same time, the k obs value obtained for the [Sc(OPC2A)(F)] complex (k obs = 16.5 s^−1) is lower by an order of magnitude than that of [Yb(DTMA)(F)]^2+ [ [45] ^] which is likely to be rationalized by the more rigid environment around the M(III)‐F entity.
Figure S25. Selective magnetization transfer (MT) experiment (intensity vs. delay time) curves for [Sc(PC2AAM^nBu)(F)] (c[Sc(PC2AAMnBu)(F)] = 5 mM, cF = 10 mM, pH = 5.50, 298 K). The symbols show the measured intensities: red triangle [Sc(PC2AAM^nBu)(F)] (site A); blue square, free F^- (site B), the curves represent the fitted data (k^obsBA = 1.2 s^-1 (14% uncertainty), k^obsAB = 0.60 s^-1 (14% uncertainty), T1,A= 0.211 s; T1,B = 1.28 s (fixed)).

[4] = Fluoride binding of [Sc(PC2AM^nBu)]^+ (ternary complex stability), 19F NMR titration; assay type: physicochemical; conditions: for log K ScLF: stability constant of the ternary fluoride complex, 19F NMR, pH = 5.2, I = 0.15 M NaCl, 25 °C; for K= [Sc(L)F]/[Sc(L)]*[F^-] / log K: titration point: complex 0.0050 M, pH 5.20, I = 0.15 M NaCl, 298 K
Excerpt: Sc(III) is a typical “hard” cation, forming very stable complexes with fluoride anion.^[ [51], [52] ^] […] The formation of the ternary [Sc(PC2AM^nBu)(F)] complex can be followed by […], as two sets of signals (Δδ ∼ 20 Hz) indicate a slow exchange regime on the […] time scale (Figure S16). Measuring the intensities of the free and bound fluoride signals, the stability constant (Eqn. 6) of the [Sc(PC2AM^nBu)(F)] complex (Eqn. 5) can be calculated (Table S1).
(5) [Sc(PC2AM^nBu)]^++F^−⇌[Sc(PC2AM^nBu)(F)] (6) KScLF=ScPC2AM^nBuF/[ScPC2AM^nBu^+]F^−
Table S1. Summary of data used for the calculation of the stability constant, log K[Sc(PC2AM^nBu)(F)] by titration of 0.005M [Sc(PC2AM^nBu)]^+ parent complex with different amounts of F^- (0.005 - 0.01 M concentration range) followed by 376.4 MHz ^19F NMR (I = 0.15 M NaCl, c Sc(PC2AM^nBu) = 5 mM, pH=5.20, T= 298 K).

Compound: O=C(O)CN1CCN(CC(=O)O)CCN(CC(=O)O)CCN(CC(=O)O)CC1 [DOTA]
k 0 (spontaneous dissociation) [1]: 6e-06 s⁻¹
k 1 (acid‐assisted dissociation) [1]: 4.3e-06 M⁻¹ s⁻¹

Compound: F.O=C([O-])CN(CCN(CC(=O)[O-])CC(=O)O)CC(=O)[O-].[Al+3] [[Al(EDTA)(F)]^2−]
k obs (fluoride exchange) ([2]; estimate, no magnetization effect in MT experiment): greater than or equal to 0.2 s^−1

Compound: O=C([O-])CN1CCOCCN(CC(=O)[O-])Cc2cccc(n2)C1.[F-].[Sc+3] [[Sc(OPC2A)(F)]]
k obs (fluoride exchange) ([2]; literature value): 16.5 s⁻¹

log K ScLF [4]: 2.5(2)
log K ScLF ([4]; listed as [Sc(PC2AMnBu)(F)]): 2.5
K= [Sc(L)F]/[Sc(L)]*[F^-] ([4]; F^- 0.0050 M): 356.65
log K ([4]; F^- 0.0050 M): 2.55
K= [Sc(L)F]/[Sc(L)]*[F^-] ([4]; F^- 0.0060 M): 508.89
log K ([4]; F^- 0.0060 M): 2.71
K= [Sc(L)F]/[Sc(L)]*[F^-] ([4]; F^- 0.0070 M): 342.86
log K ([4]; F^- 0.0070 M): 2.54
K= [Sc(L)F]/[Sc(L)]*[F^-] ([4]; F^- 0.0080 M): 222.09
log K ([4]; F^- 0.0080 M): 2.35
K= [Sc(L)F]/[Sc(L)]*[F^-] ([4]; F^- 0.0100 M): 150.79
log K ([4]; F^- 0.0100 M): 2.18
Compound: CCCCNC(=O)CN1CCN(CC(=O)[O-])Cc2cccc(n2)CN(CC(=O)[O-])CC1.[F-].[Sc+3] [[Sc(PC2AM^nBu)(F)]]
k obs ^AB (fluoride exchange, complex site A to free F^− site B) [3]: 0.6 s⁻¹
k obs ^AB (fluoride exchange, complex site A to free F^− site B) ([3]; listed as [Sc(PC2AAM^nBu)(F)]): 0.60 s⁻¹
k^obsBA (fluoride exchange, free F^- site B to complex site A) ([3]; pH = 5.50, 298 K): 1.2 s⁻¹

Compound: CNC(=O)CN1CCN(CC(=O)NC)CCN(CC(=O)NC)CCN(CC(=O)NC)CC1.[F-].[Yb+3] [[Yb(DTMA)(F)]^2+]
k obs (fluoride exchange) ([2]; literature value): 216 s⁻¹
